Where two headings read alike, the source gives them in different places.
What was measured:
[1] = tested on: 60 cancer cell lines (NCI 60 cancer cell line series); assay: NCI-DTP in vitro cancer screen, sulforhodamine B (SRB) growth inhibition, 48 hour exposure; format: cell-based, human; parameters: key to sensitivity class Ovarian OVCAR-8 CL6005 / sensitivity class Ovarian SK-OV-3 CL6011 / sensitivity class Prostate DU-145 CL11003 / sensitivity class NSCLC NCI-H522 CL1003 / sensitivity class Ovarian IGROV1 CL6010 / sensitivity class Ovarian OVCAR-4 CL6002 / sensitivity class Prostate PC-3(I) CL11001 / sensitivity class Renal A498 CL9013 / sensitivity class Renal SN12C CL9008: sensitivity class: 1 = Low, 2 = Medium, 3 = High
Method in brief: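 Values come from the NCI-DTP screen database: -log GI50, the concentration giving 50% growth inhibition, derived from SRB cell-mass dose-response curves. Each line seeded at its own density, treated day 1 at five ten-fold-spaced doses in duplicate wells, stained after 48 h.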

[2] = tested on: 60 cancer cell lines (NCI 60 cancer cell line series); details: cited from earlier work

SMILES: O=C1c2c(O)ccc(O)c2C(=O)c2c(NCCNCCO)ccc(NCCNCCO)c21 [Mitoxantrone]
- classification of cell line as Low(1), Medium(2) or High(3) sensitivity to compound ([1]; Breast BT-549 (CL5013)): 2
- classification of cell line as Low(1), Medium(2) or High(3) sensitivity to compound ([1]; Breast HS-578T CL5006): 2
- classification of cell line as Low(1), Medium(2) or High(3) sensitivity to compound ([1]; Breast MCF7(I) (CL5001)): 3
- classification of cell line as Low(1), Medium(2) or High(3) sensitivity to compound ([1]; Breast MCF7/ADRr (CL5002)): 1
- classification of cell line as Low(1), Medium(2) or High(3) sensitivity to compound ([1]; Breast MDA-MB-231 CL5005): 1
- classification of cell line as Low(1), Medium(2) or High(3) sensitivity to compound ([1]; Breast MDA-MB-435 (CL5011)): 1
- classification of cell line as Low(1), Medium(2) or High(3) sensitivity to compound ([1]; Breast MDA-N CL5012): 1
- classification of cell line as Low(1), Medium(2) or High(3) sensitivity to compound ([1]; Breast T-47D (CL5014)): 2
- classification of cell line as Low(1), Medium(2) or High(3) sensitivity to compound ([1]; CNS SF-268 CL12014): 2
- classification of cell line as Low(1), Medium(2) or High(3) sensitivity to compound ([1]; CNS SF-295 CL12015): 2
- classification of cell line as Low(1), Medium(2) or High(3) sensitivity to compound ([1]; CNS SF-539 CL12016): 3
- classification of cell line as Low(1), Medium(2) or High(3) sensitivity to compound ([1]; CNS SNB-19 (CL12002)): 3
- classification of cell line as Low(1), Medium(2) or High(3) sensitivity to compound ([1]; CNS SNB-75(I) CL12005): 3
- classification of cell line as Low(1), Medium(2) or High(3) sensitivity to compound ([1]; CNS U251(I) CL12009): 3
- classification of cell line as Low(1), Medium(2) or High(3) sensitivity to compound ([1]; Colon COLO-250 CL4010): 2
- classification of cell line as Low(1), Medium(2) or High(3) sensitivity to compound ([1]; Colon HCC-2998 (CL4002)): 1
- classification of cell line as Low(1), Medium(2) or High(3) sensitivity to compound ([1]; Colon HCT-15 CL4015): 1
- classification of cell line as Low(1), Medium(2) or High(3) sensitivity to compound ([1]; Colon HCT-116 (CL4003)): 2
- classification of cell line as Low(1), Medium(2) or High(3) sensitivity to compound ([1]; Colon HT29(I) CL4001): 1
- classification of cell line as Low(1), Medium(2) or High(3) sensitivity to compound ([1]; Colon KM12 (CL4017)): 1
- classification of cell line as Low(1), Medium(2) or High(3) sensitivity to compound ([1]; Colon SW-620 (CL4009)): 2
- classification of cell line as Low(1), Medium(2) or High(3) sensitivity to compound ([1]; Leukemia CCRF-CEM(I) (CL7003)): 3
- classification of cell line as Low(1), Medium(2) or High(3) sensitivity to compound ([1]; Leukemia HL-60(I) (CL7008)): 3
- classification of cell line as Low(1), Medium(2) or High(3) sensitivity to compound ([1]; Leukemia K562(I) CL7005): 2
- classification of cell line as Low(1), Medium(2) or High(3) sensitivity to compound ([1]; Leukemia MOLT-4 (CL7006)): 3
- classification of cell line as Low(1), Medium(2) or High(3) sensitivity to compound ([1]; Leukemia RPMI-8226(I) (CL7010)): 2
- classification of cell line as Low(1), Medium(2) or High(3) sensitivity to compound ([1]; Leukemia SR CL7019): 3
- classification of cell line as Low(1), Medium(2) or High(3) sensitivity to compound ([1]; Melanoma LOX IMVI CL10001): 2
- classification of cell line as Low(1), Medium(2) or High(3) sensitivity to compound ([1]; Melanoma M14 (CL10014)): 2
- classification of cell line as Low(1), Medium(2) or High(3) sensitivity to compound ([1]; Melanoma MALME-3M CL10002): 2
- classification of cell line as Low(1), Medium(2) or High(3) sensitivity to compound ([1]; Melanoma SK-MEL-2 (CL10005)): 1
- classification of cell line as Low(1), Medium(2) or High(3) sensitivity to compound ([1]; Melanoma SK-MEL-5 (CL10007)): 2
- classification of cell line as Low(1), Medium(2) or High(3) sensitivity to compound ([1]; Melanoma SK-MEL-28 (CL10008)): 1
- classification of cell line as Low(1), Medium(2) or High(3) sensitivity to compound ([1]; Melanoma UACC-62 (CL10020)): 2
- classification of cell line as Low(1), Medium(2) or High(3) sensitivity to compound ([1]; Melanoma UACC-257 (CL10021)): 1
- classification of cell line as Low(1), Medium(2) or High(3) sensitivity to compound ([1]; NSCLC A549/ATCC (CL1004)): 3
- classification of cell line as Low(1), Medium(2) or High(3) sensitivity to compound ([1]; NSCLC EKVX (CL1008)): 1
- classification of cell line as Low(1), Medium(2) or High(3) sensitivity to compound ([1]; NSCLC HOP-62 (CL1026)): 3
- classification of cell line as Low(1), Medium(2) or High(3) sensitivity to compound ([1]; NSCLC HOP-92 (CL1029)): 3
- classification of cell line as Low(1), Medium(2) or High(3) sensitivity to compound ([1]; NSCLC NCI-H226 CL1013): 3
- sensitivity class NSCLC NCI-H23(I) CL1001 ([1]; cell line NSCLC NCI-H23(I), CL1001): 2
- sensitivity class NSCLC NCI-H332M CL1017 ([1]; cell line NSCLC NCI-H332M, CL1017): 1
- sensitivity class NSCLC NCI-H460 CL1021 ([1]; cell line NSCLC NCI-H460, CL1021): 3
- sensitivity class NSCLC NCI-H522 CL1003 ([1]; cell line NSCLC NCI-H522, CL1003): 2
- sensitivity class Ovarian IGROV1 CL6010 ([1]; cell line Ovarian IGROV1, CL6010): 2
- sensitivity class Ovarian OVCAR-3 CL6001 ([1]; cell line Ovarian OVCAR-3, CL6001): 1
- sensitivity class Ovarian OVCAR-4 CL6002 ([1]; cell line Ovarian OVCAR-4, CL6002): 1
- sensitivity class Ovarian OVCAR-5 CL6003 ([1]; cell line Ovarian OVCAR-5, CL6003): 1
- sensitivity class Ovarian OVCAR-8 CL6005 ([1]; cell line Ovarian OVCAR-8, CL6005): 2
- sensitivity class Ovarian SK-OV-3 CL6011 ([1]; cell line Ovarian SK-OV-3, CL6011): 2
- sensitivity class Prostate DU-145 CL11003 ([1]; cell line Prostate DU-145, CL11003): 2
- sensitivity class Prostate PC-3(I) CL11001 ([1]; cell line Prostate PC-3(I), CL11001): 2
- sensitivity class Renal 786-O CL9018 ([1]; cell line Renal 786-O, CL9018): 2
- sensitivity class Renal A498 CL9013 ([1]; cell line Renal A498, CL9013): 2
- sensitivity class Renal ACHN CL9023 ([1]; cell line Renal ACHN, CL9023): 3
- sensitivity class Renal CAKI-1 CL9015 ([1]; cell line Renal CAKI-1, CL9015): 3
- sensitivity class Renal RXF-393 CL9016 ([1]; cell line Renal RXF-393, CL9016): 2
- sensitivity class Renal SN12C CL9008 ([1]; cell line Renal SN12C, CL9008): 3
- sensitivity class Renal TK10 CL9024 ([1]; cell line Renal TK10, CL9024): 1
- sensitivity class Renal UO-31 CL9004 ([1]; cell line Renal UO-31, CL9004): 1
- -Log (GI50) ([2]; Breast BT-549 (CL5013)): 7.2
- -Log (GI50) ([2]; Breast HS-578T CL5006): 7.0
- -Log (GI50) ([2]; Breast MCF7(I) (CL5001)): 8.4
- -Log (GI50) ([2]; Breast MCF7/ADRr (CL5002)): 5.4
- -Log (GI50) ([2]; Breast MDA-MB-231 CL5005): 6.7
- -Log (GI50) ([2]; Breast MDA-MB-435 (CL5011)): 6.3
- -Log (GI50) ([2]; Breast MDA-N CL5012): 6.6
- -Log (GI50) ([2]; Breast T-47D (CL5014)): 7.2
- -Log (GI50) ([2]; CNS SF-268 CL12014): 7.5
- -Log (GI50) ([2]; CNS SF-295 CL12015): 7.7
- -Log (GI50) ([2]; CNS SF-539 CL12016): 7.8
- -Log (GI50) ([2]; CNS SNB-19 (CL12002)): 7.8
- -Log (GI50) ([2]; CNS SNB-75(I) CL12005): 7.9
- -Log (GI50) ([2]; CNS U251(I) CL12009): 8.0
- -Log (GI50) ([2]; Colon COLO-250 CL4010): 7.0
- -Log (GI50) ([2]; Colon HCC-2998 (CL4002)): 6.6
- -Log (GI50) ([2]; Colon HCT-15 CL4015): 6.6
- -Log (GI50) ([2]; Colon HCT-116 (CL4003)): 7.3
- -Log (GI50) ([2]; Colon HT29(I) CL4001): 6.6
- -Log (GI50) ([2]; Colon KM12 (CL4017)): 6.3
- -Log (GI50) ([2]; Colon SW-620 (CL4009)): 7.3
- -Log (GI50) ([2]; Leukemia CCRF-CEM(I) (CL7003)): 8.2
- -Log (GI50) ([2]; Leukemia HL-60(I) (CL7008)): 8.0
- -Log (GI50) ([2]; Leukemia K562(I) CL7005): 6.9
- -Log (GI50) ([2]; Leukemia MOLT-4 (CL7006)): 8.3
- -Log (GI50) ([2]; Leukemia RPMI-8226(I) (CL7010)): 6.7
- -Log (GI50) ([2]; Leukemia SR CL7019): 8.1
- -Log (GI50) ([2]; Melanoma LOX IMVI CL10001): 7.7
- -Log (GI50) ([2]; Melanoma M14 (CL10014)): 6.9
- -Log (GI50) ([2]; Melanoma MALME-3M CL10002): 6.9
- -Log (GI50) ([2]; Melanoma SK-MEL-2 (CL10005)): 6.4
- -Log (GI50) ([2]; Melanoma SK-MEL-5 (CL10007)): 7.3
- -Log (GI50) ([2]; Melanoma SK-MEL-28 (CL10008)): 6.3
- -Log (GI50) ([2]; Melanoma UACC-62 (CL10020)): 7.4
- -Log (GI50) ([2]; Melanoma UACC-257 (CL10021)): 5.7
- -Log (GI50) ([2]; NCSLC NCI-H522 CL1003): 7.3
- -Log (GI50) ([2]; NSCLC A549/ATCC (CL1004)): 7.9
- -Log (GI50) ([2]; NSCLC EKVX (CL1008)): 6.5
- -Log (GI50) ([2]; NSCLC HOP-62 (CL1026)): 7.9
- -Log (GI50) ([2]; NSCLC HOP-92 (CL1029)): 7.8
- -Log (GI50) ([2]; NSCLC NCI-H23(I) CL1001): 7.2
- -Log (GI50) ([2]; NSCLC NCI-H226 CL1013): 7.8
- -Log (GI50) ([2]; NSCLC NCI-H332M CL1017): 6.6
- -Log (GI50) ([2]; NSCLC NCI-H460 CL1021): 8.2
- -Log (GI50) ([2]; Ovarian IGROV1 CL6010): 6.7
- -Log (GI50) ([2]; Ovarian OVCAR-3 CL6001): 6.5
- -Log (GI50) ([2]; Ovarian OVCAR-4 CL6002): 6.5
- -Log (GI50) ([2]; Ovarian OVCAR-5 CL6003): 6.5
- -Log (GI50) ([2]; Ovarian OVCAR-8 CL6005): 7.4
- -Log (GI50) ([2]; Ovarian SK-OV-3 CL6011): 7.4
- -Log (GI50) ([2]; Prostate DU-145 CL11003): 7.5
- -Log (GI50) ([2]; Prostate PC-3(I) CL11001): 6.9
- -Log (GI50) ([2]; Renal 786-O CL9018): 7.7
- -Log (GI50) ([2]; Renal A498 CL9013): 7.2
- -Log (GI50) ([2]; Renal ACHN CL9023): 7.9
- -Log (GI50) ([2]; Renal CAKI-1 CL9015): 8.0
- -Log (GI50) ([2]; Renal RXF-393 CL9016): 7.2
- -Log (GI50) ([2]; Renal SN12C CL9008): 8.1
- -Log (GI50) ([2]; Renal TK10 CL9024): 6.4
- -Log (GI50) ([2]; Renal UO-31 CL9004): 6.5
